pEC50: −log10 of the molar value.
The molecules below were run on human T lymphocyte strain Jurkat (ATCC TIB-152) adhesion to ICAM-1 (assay: T-cell adhesion assay (Jurkat cells on ICAM-1 coated plates)). Conditions: Homo sapiens; BCECF-AM labelled Jurkat cells, ICAM-1 coated plate, fluorescence readout; read-out: EC50 of cell adhesion and inhibition.
Assay type: cell-based
Experimental: Cell Adhesion Inhibition Experiments:
T-cell adhesion assay was performed using human T lymphocyte strain Jurkat (ATCC TIB-152): goat Anti-Human IgG (Fc specific) (Sigma 18885) was diluted to 10 μg/ml in PBS, incubated 100 μL per well/96 well plate at 4° C. for 12 hours. Liquid in the well plate was poured off, blocked with 200 μL of 1% BSA at 37° C. for 90 minutes, and washed three times with PBS. 50 μL of 1 μg/mL ICAM-1 (containing 0.1% BSA, 0.01% Tween 20) was added to each well and incubated at 37° C. for 3 hours. The plate was washed 3 times with assay buffer (20 mM HEPES pH 7.6, 140 mM NaCl, 1 mM MgCl2, 1 mM MnCl2, 0.2% glucose).
The Jurkat […] was centrifuged at 100-G, and cells were resuspended in an assay buffer (20 mM HEPES pH 7.6, 140 mM NaCl, 1 mM MgCl2, 1 mM MnCl2, 0.2% glucose) at 37° C.
2 μl of 1 mM of BCECF-AM per mL of the cell suspension was added. Incubated at 37° C. for 30 minutes, stirred up every 10 minutes during the incubation. After the incubation, the cells were washed with assay buffer at 37° C. The cells were suspended to a concentration of 6×10^6/mL.
The inhibitor was diluted to a final concentration of 2× in assay buffer, and 50 μL of the compound solution and […] of Jurkat cells were mixed at room temperature, and incubated at 37° C. for 30 minutes. 100 μL/well of cells and inhibitors were added to the plate and incubated for 1 hour at room temperature. The total fluorescence was measured by a fluorometer: ex: 485; em: 530; cutoff: 530 to measure the total fluorescence. The plate was washed once with the assay buffer and the fluorescence was measured with a fluorometer: ex: 485; em: 530; cutoff. The results are plotted as inhibition-concentration plots and EC50 is calculated using standard methods.

SMILES	pEC50
CP(=O)(CCc1cc(Cl)c(C(=O)N[C@@H](CN/C(=N\C#N)N2CC[C@@H](O)C2)C(=O)O)c(Cl)c1)c1cccc(O)c1 (stereo partly drawn) [Example 19, (2s)-3-((R)—N′-cyano-3-hydroxytetrahydropyrrol-1-formamidino)-2-(2,6-dichloro-4-(2-(methyl(3-hydroxyphenyl)phosphoryl)ethyl)benzamido)propionic Acid]	6.64
CCCCP(=O)(CCc1cc(Cl)c(C(=O)N[C@@H](Cc2cccc(S(C)(=O)=O)c2)C(=O)O)c(Cl)c1)c1cccc(O)c1 (stereo partly shown) [Example 23]	7.21
CP(=O)(CCc1cc(Cl)c(C(=O)N[C@@H](Cc2cccc(S(C)(=O)=O)c2)C(=O)O)c(Cl)c1)c1ccc2ccoc2c1 (stereo partly shown) [Example 25]	7.20
CCOP(=O)(/C=C/c1cc(Cl)c(C(=O)N[C@@H](Cc2cccc(S(C)(=O)=O)c2)C(=O)O)c(Cl)c1)c1cccc(O)c1 (stereo partly drawn) [Example 32, (S,E)-2-(4-(2-(3-hydroxyphenyl)phosphonovinyl)-2,6-dichlorobenzamide)-3-(3-(methylsulfonyl)phenyl)propionic Acid]	8.43
CP(=O)(CCc1cc(Cl)c(C(=O)N[C@@H](CCCCNS(C)(=O)=O)C(=O)O)c(Cl)c1)c1cccc(O)c1 (stereo partly shown) [Example 37]	< 6.00
CP(=O)(CCc1cc(Cl)c(C(=O)N[C@@H](Cc2cncc(S(C)(=O)=O)c2)C(=O)O)c(Cl)c1)c1cccc(O)c1 (stereo partly shown) [Example 38]	7.62
CP(=O)(CCc1cc(Cl)c(C(=O)N[C@@H](CC2CCN(S(C)(=O)=O)C2)C(=O)O)c(Cl)c1)c1cccc(O)c1 (stereo partly shown) [Example 42]	6.82
CP(=O)(CCc1cc(Cl)c(C(=O)N[C@@H](CN/C(=N\C#N)N2C[C@@H](O)[C@H](O)C2)C(=O)O)c(Cl)c1)c1cccc(O)c1 (stereo partly drawn) [Example 45, (2s)-3-((trans)-N′-cyano-3,4-dihydroxypyrrolidine-1-formamidino)-2-(2,6-dichloro-4-(2-(methyl(3-hydroxyphenyl)phosphoryl)ethyl)benzamido)propionic Acid]	< 6.00
CP(=O)(CCc1cc(Cl)c(C(=O)N[C@@H](CN/C(=N\C#N)N(CCO)CCO)C(=O)O)c(Cl)c1)c1cccc(O)c1 (stereo partly shown) [Example 46, (2s)-3-(2-cyano-3,3-bis(2-hydroxyethyl)guanidino)-2-(2,6-dichloro-4-(2-(methyl(3-hydroxyphenyl)phosphoryl)ethyl)benzamido)propionic Acid]	< 6.00
COP(=O)(C#Cc1cc(Cl)c(C(=O)N[C@@H](Cc2cccc(S(C)(=O)=O)c2)C(=O)O)c(Cl)c1)c1ccccc1O (stereo partly shown) [Example 47]	6.47
CS(=O)(=O)c1cccc(C[C@H](NC(=O)c2c(Cl)cc(/C=C/P(=O)(c3cccc(O)c3)c3cccc(O)c3)cc2Cl)C(=O)O)c1 [Example 52, (S,E)-2-(4-(2-(bis(3-hydroxyphenyl)phosphonyl)vinyl)-2,6-dichlorobenzamido)-3-(3-(methylsulfonyl)phenyl)propionic Acid]	7.13
CCOP(=O)(/C=C/c1cc(Cl)c(C(=O)N[C@@H](Cc2cccc(S(C)(=O)=O)c2)C(=O)O)c(Cl)c1)c1ccc(O)cc1 (stereo partly shown) [Example 54]	8.02
CC(C)P(=O)(CCc1cc(Cl)c(C(=O)N[C@@H](Cc2cccc(S(C)(=O)=O)c2)C(=O)O)c(Cl)c1)c1cccc(O)c1 (stereo partly shown) [Example 56]	7.20

The remaining molecules from weak to strong by pEC50, led by results:

pEC50	SMILES
7.64	CP(=O)(CCc1cc(Cl)c(C(=O)N[C@@H](Cc2cccc(S(C)(=O)=O)c2)C(=O)O)c(Cl)c1)c1cc2ccccc2o1 (stereo partly shown) [Example 26]
7.66	CS(=O)(=O)c1cccc(C[C@H](NC(=O)c2c(Cl)cc(CCP(=O)(c3cccc(O)c3)C3CC3)cc2Cl)C(=O)O)c1 (stereo partly shown) [Example 22]
7.66	CS(=O)(=O)c1cccc(C[C@H](NC(=O)c2c(Cl)cc(CCP(=O)(c3cccc(O)c3)c3cccc(O)c3)cc2Cl)C(=O)O)c1 [Example 53, (S,E)-2-(4-(2-(bis(3-hydroxyphenyl)phosphonyl)ethyl)-2,6-dichlorobenzamido)-3-(3-(methylsulfonyl)phenyl)propionic Acid]
7.80	CS(=O)(=O)c1cccc(C[C@H](NC(=O)c2c(Cl)cc(C(O)CP(=O)(O)c3cccc(O)c3)cc2Cl)C(=O)O)c1 (stereo partly shown) [Example 50, (2s)-2-(2,6-dichloro-4-(1-hydroxy 2-(hydroxy(3-hydroxyphenyl)phosphoryl)ethyl)benzamido)-3-(3-(methylsulfonyl)phenyl)propionic Acid]
7.90	CP(=O)(CCc1cc(Cl)c(C(=O)N[C@@H](CNC(=O)c2cccc(O)c2)C(=O)O)c(Cl)c1)c1cccc(O)c1 (stereo partly shown) [Example 34, (2s)-2-(2,6-dichloro-4-(2-(methyl(3-hydroxyphenyl)phosphoryl)ethyl)benzamido)-3-(3-hydroxybenzamido)propionic Acid]
7.97	CP(=O)(CCc1cc(Cl)c(C(=O)N[C@@H](Cc2cccc(S(C)(=O)=O)c2)C(=O)O)c(Cl)c1)c1ccc(O)cc1 (stereo partly shown) [Example 33]
7.97	CS(=O)(=O)c1cccc(C[C@H](NC(=O)c2c(Cl)cc(C#CP(=O)(O)c3ccc4ccoc4c3)cc2Cl)C(=O)O)c1 [Example 49]
8.14	CCP(=O)(CCc1cc(Cl)c(C(=O)N[C@@H](Cc2cccc(S(C)(=O)=O)c2)C(=O)O)c(Cl)c1)c1cccc(O)c1 (stereo partly shown) [Example 21]
8.14	C[P@](=O)(CCc1cc(Cl)c(C(=O)N[C@@H](Cc2cccc(S(C)(=O)=O)c2)C(=O)O)c(Cl)c1)c1cccc(O)c1 [Example 30]
8.15	C[P@@](=O)(CCc1cc(Cl)c(C(=O)N[C@@H](Cc2cccc(S(C)(=O)=O)c2)C(=O)O)c(Cl)c1)c1cccc(O)c1 [Example 31]
8.17	CP(=O)(C#Cc1cc(Cl)c(C(=O)N[C@@H](Cc2cccc(S(C)(=O)=O)c2)C(=O)O)c(Cl)c1)c1ccc(O)c(Cl)c1 (stereo partly shown) [Example 48]
8.28	CS(=O)(=O)c1cccc(C[C@H](NC(=O)c2c(Cl)cc(/C=C/P(=O)(c3cccc(O)c3)C3CC3)cc2Cl)C(=O)O)c1 (stereo partly shown) [Example 57]
8.38	CS(=O)(=O)c1cccc(C[C@H](NC(=O)c2c(Cl)cc(/C=C/P(=O)(O)c3cccc(O)c3)cc2Cl)C(=O)O)c1 [Example 51, (2s)-2-(2,6-dichloro-4-(2-(hydroxy(m-hydroxyphenyl)phosphoryl)vinyl)benzamido)-3-(3-(methylsulfonyl)phenyl)propionic Acid]
8.42	CP(=O)(CCc1cc(Cl)c(C(=O)N[C@@H](CNC(=O)c2cc(O)cc(O)c2)C(=O)O)c(Cl)c1)c1cccc(O)c1 (stereo partly shown) [Example 35, (2s)-2-(2,6-dichloro-4-(2-(methyl(3-hydroxyphenyl)phosphoryl)ethyl)benzamido)-3-(3,5-dihydroxybenzamido)propionic Acid]
8.72	CP(=O)(/C=C/c1cc(Cl)c(C(=O)N[C@@H](Cc2cccc(S(C)(=O)=O)c2)C(=O)O)c(Cl)c1)c1cccc(O)c1 (stereo partly shown) [Example 58]
